In patent US20170143712A1, “Methods of Treating Cancers, Immune and Autoimmune Diseases, and Inflammatory Diseases Based on BTK Occupancy and BTK Resynthesis Rate” (Acerta Pharma B.V., priority 2014, published 2017):

Tests used:
[1] = test system: ID8 ovarian cancer; test: ID8 syngeneic orthotropic ovarian cancer murine model; assay type: in vivo, mouse; conditions: 15 mg/kg/BID orally vs vehicle
Description: The ID8 syngeneic orthotropic ovarian cancer murine model was used to investigate the therapeutic efficacy of the BTK inhibitor of Formula (II) through treatment of the solid tumor microenvironment. Human ovarian cancer models, including the ID8 syngeneic orthotropic ovarian cancer model and other animal models, are described in Fong and Kakar, J. Ovarian Res. 2009, 2, 12; Greenaway, et al., Gynecol. Oncol. 2008, 108, 385-94; Urzua, et al., Tumour Biol. 2005, 26, 236-44; Janat-Amsbury, et al., Anticancer Res. 2006, 26, 3223-28; Janat-Amsbury, et al., Anticancer Res. 2006, 26, 2785-89. Animals were treated with vehicle or Formula (II), 15 mg/kg/BID given orally. The results of the study are shown in FIG. 35A, FIG. 35B, FIG. 36, FIG. 37, FIG. 38A, FIG. 38B, FIG. 39A, and FIG. 39B.

[2] = test system: B cell receptor (BCR); test: Ex vivo anti-IgM induced CD86 and CD69 expression on splenocyte B cells after oral dosing of mice; assay type: in vivo; conditions: Mus musculus, single oral 25 mg/kg, 3-24 hours, read-out: CD86 % inhibition over the entire time course
[3] = test system: established type II collagen-induced arthritis (CIA) in DBA/1 mice; test: 14-day mouse established type II collagen-induced arthritis (CIA), PO QD (Example 10); assay type: in vivo; conditions: for AUC (All Paws) - Corrected for Initial Score / Change in Body Weight (g) / Histopathology Summed Score Knees / Histopathology Summed Score Paws / Histopathology Summed Score Six-Joints / Paw Score AUC (All Paws): mean(SE); for disease-induced body weight loss (percent change from baseline) vs vehicle controls / arthritis scores measured daily vs vehicle controls: p<0.05 on the days printed
[4] = 5 mg/kg PO QD, therapeutic paws only
[5] = 25 mg/kg PO QD, therapeutic paws only

SMILES: CC#CC(=O)N1CCC[C@H]1c1nc(-c2ccc(C(=O)Nc3ccccn3)cc2)c2c(N)nccn12 [Formula (II), (S)-4-(8-amino-3-(1-(but-2-ynoyl)pyrrolidin-2-yl)imidazo[1,5-a]pyrazin-1-yl)-N-(pyridin-2-yl)benzamide]
- CD8+ T cells [1]: increase
- ID8 ovarian cancer growth [1]: impairs ID8 ovarian cancer growth
- immunosuppressive B cells in tumor-bearing mice [1]: significant reduction
- immunosuppressive tumor associated Tregs [1]: significant reduction
- immunosuppressive tumor-associated lymphocytes [1]: significant reduction
- inhibition at 25 mg/kg [2]: 67.9%
- AUC (All Paws) - Corrected for Initial Score ([3]; 1 mg/kg PO QD): 14.99(3.62)
- Change in Body Weight (g) ([3]; 1 mg/kg PO QD): −0.36(0.77) g
- Histopathology Summed Score Knees ([3]; 1 mg/kg PO QD): 4.90(1.32)
- Histopathology Summed Score Paws ([3]; 1 mg/kg PO QD): 7.95(1.54)
- Histopathology Summed Score Six-Joints ([3]; 1 mg/kg PO QD): 6.93(1.22)
- Paw Score AUC (All Paws) ([3]; 1 mg/kg PO QD): 22.14(4.11)
- disease-induced body weight loss (percent change from baseline) vs vehicle controls ([3]; 1 mg/kg PO QD): significantly inhibited toward normal
- daily arthritis scores vs vehicle controls ([3]; 1 mg/kg PO QD, prophylactic paws): significantly reduced toward normal
- knee histopathology parameters ([3]; 1 mg/kg, compared to 1 mg/kg ibrutinib): significantly improved
- six-joint histopathology, reduction of summed scores vs vehicle controls ([3]; 5 mg/kg PO QD): 86%
- total body weight loss from enrollment to study termination ([3]; 5 mg/kg PO QD): significantly inhibited
- Clinical arthritis scores AUC, reduction vs vehicle controls ([3]; 5 mg/kg PO QD, all paws): 82%
- Clinical arthritis scores AUC, reduction when corrected for initial enrollment score ([3]; 5 mg/kg PO QD, all paws): 99%
- arthritis scores measured daily vs vehicle controls ([3]; 5 mg/kg PO QD, all paws): significantly reduced toward normal
- AUC (All Paws) - Corrected for Initial Score ([3]; 5 mg/kg PO QD): *0.43(2.76)
- Change in Body Weight (g) ([3]; 5 mg/kg PO QD): *1.23(0.52) g
- Histopathology Summed Score Knees ([3]; 5 mg/kg PO QD): *1.48(0.94)
- Histopathology Summed Score Paws ([3]; 5 mg/kg PO QD): *2.23(0.72)
- Histopathology Summed Score Six-Joints ([3]; 5 mg/kg PO QD): *1.98(0.69)
- Paw Score AUC (All Paws) ([3]; 5 mg/kg PO QD): *7.58(2.63)
- disease-induced body weight loss (percent change from baseline) vs vehicle controls ([3]; 5 mg/kg PO QD): significantly inhibited toward normal
- daily arthritis scores vs vehicle controls ([3]; 5 mg/kg PO QD, prophylactic paws): significantly reduced toward normal
- Clinical arthritis scores AUC, reduction vs vehicle controls ([3]; 5 mg/kg PO QD, prophylactic paws only): 94%
- daily arthritis scores vs vehicle controls ([3]; 5 mg/kg PO QD, therapeutic paws): significantly reduced toward normal
- Clinical arthritis scores AUC, reduction vs vehicle controls [3, 4]: 64%
- Clinical arthritis scores AUC, reduction when corrected for initial enrollment score [3, 4]: 110%
- six-joint histopathology, reduction of summed scores vs vehicle controls ([3]; 25 mg/kg PO QD): 93%
- total body weight loss from enrollment to study termination ([3]; 25 mg/kg PO QD): significantly inhibited
- Clinical arthritis scores AUC, reduction vs vehicle controls ([3]; 25 mg/kg PO QD, all paws): 95%
- Clinical arthritis scores AUC, reduction when corrected for initial enrollment score ([3]; 25 mg/kg PO QD, all paws): 115%
- arthritis scores measured daily vs vehicle controls ([3]; 25 mg/kg PO QD, all paws): significantly reduced toward normal
- AUC (All Paws) - Corrected for Initial Score ([3]; 25 mg/kg PO QD): *−5.24(1.36)
- Change in Body Weight (g) ([3]; 25 mg/kg PO QD): *1.01(0.66) g
- Histopathology Summed Score Knees ([3]; 25 mg/kg PO QD): *1.25(0.43)
- Histopathology Summed Score Paws ([3]; 25 mg/kg PO QD): *0.94(0.40)
- Histopathology Summed Score Six-Joints ([3]; 25 mg/kg PO QD): *1.04(0.36)
- Paw Score AUC (All Paws) ([3]; 25 mg/kg PO QD): *1.91(0.96)
- disease-induced body weight loss (percent change from baseline) vs vehicle controls ([3]; 25 mg/kg PO QD): significantly inhibited toward normal
- daily arthritis scores vs vehicle controls ([3]; 25 mg/kg PO QD, prophylactic paws): significantly reduced toward normal
- Clinical arthritis scores AUC, reduction vs vehicle controls ([3]; 25 mg/kg PO QD, prophylactic paws only): 100%
- daily arthritis scores vs vehicle controls ([3]; 25 mg/kg PO QD, therapeutic paws): significantly reduced toward normal
- Clinical arthritis scores AUC, reduction vs vehicle controls [3, 5]: 89%
- Clinical arthritis scores AUC, reduction when corrected for initial enrollment score [3, 5]: 152%
- spleen weights compared to vehicle controls ([3]; all dose groups PO QD): not significantly affected
